Test results published in patent US7851474B2, “Dipiperazinyl ketones and related analogues” (Neurogen Corporation, priority 2005, dated 2010).
Where two headings read alike, the source gives them in different places.

Molecular target: T1, chimeric human H3 receptor (Homo sapiens, UniProt Q9Y5N1, E19D)
T1 construct: made in house; host or cells: Sf9 insect cells (baculovirus infection); P2 membrane preparation
Experiment: Chimeric human H3 receptor screening GTP binding assay (inhibition of histamine-stimulated GTP-gamma35S binding, Example 8)
Type: biochemical
Details: 1 h, read-out: percent inhibition of agonist-induced GTP-gammaS binding to H3
Experimental: This Example illustrates a representative screening assay for evaluating inhibition of histamine-stimulated GTP-gamma^35S binding. Such GTP binding activity can be used to identify H3 antagonists and inverse agonists. A compound analyzed in this assay is referred to herein as a “test compound,” and the initial identification of antagonists and inverse agonists is performed using a test compound concentration of 4 μM.
Four independent baculoviral stocks (one directing the expression of the chimeric human H3 receptor and three directing the expression of each of the three subunits of a heterotrimeric G-protein) are used to infect a culture of Sf9 cells as described above. P2 membranes are prepared as described above, and are resuspended by Dounce homogenization (tight pestle) in GTP binding assay buffer (50 mM Tris pH 7.4, 120 mM NaCl, 5 mM MgCl2, 2 mM EGTA, 1 mg/ml BSA, 0.2 mg/ml bacitracin, 0.02 mg/ml aprotinin, 0.01 mg/ml saponin, 10 μM GDP) and added to assay tubes at a concentration of 35 μg protein/reaction tube. Non-radiolabeled test compounds are added to separate reactions at a concentration of 4 μM along with 1 μM histamine (agonist). Reactions are initiated by the addition of 125 pM GTP-gamma^35S with a final assay volume of 0.20 ml.
After a 60-min incubation at room temperature, reactions are terminated by vacuum filtration over GF/C filters (pre-soaked in 50 mM Tris pH 7.4, 120 mM NaCl plus 0.1% BSA) followed by washing with ice-cold buffer (50 mM Tris pH 7.4, 120 mM NaCl). The amount of receptor-bound (and thereby membrane-bound) GTP-gamma^35S is determined by measuring the bound radioactivity, preferably by liquid scintillation spectrometry of the washed filters. Non-specific binding is determined using 10 uM GTP-gammaS and typically represents less than 5 percent of total binding. After subtraction of non-specific binding, data is expressed as percent inhibition of 1 μM histamine signal.
Neutral antagonists are those test compounds that reduce the histamine-stimulated GTP binding activity towards, but not below, baseline levels. In contrast, in the absence of added histamine, inverse agonists reduce the GTP binding activity of the receptor-containing membranes below baseline. Any test compound that elevates GTP binding activity above baseline in the absence of added histamine in this assay is defined as having agonist activity.

[1] = assay described in Example 8, symbol + in column headed Ki of Table II
[2] = "+" in Ki of Table II, assay of Example 8
[3] = Table II, "+" in the column headed Ki, assay of Example 8
[4] = Table II "Ki", symbol "+": assay described in Example 8

T1 sequence (Q9Y5N1 with tags, fused parts or gaps E19D): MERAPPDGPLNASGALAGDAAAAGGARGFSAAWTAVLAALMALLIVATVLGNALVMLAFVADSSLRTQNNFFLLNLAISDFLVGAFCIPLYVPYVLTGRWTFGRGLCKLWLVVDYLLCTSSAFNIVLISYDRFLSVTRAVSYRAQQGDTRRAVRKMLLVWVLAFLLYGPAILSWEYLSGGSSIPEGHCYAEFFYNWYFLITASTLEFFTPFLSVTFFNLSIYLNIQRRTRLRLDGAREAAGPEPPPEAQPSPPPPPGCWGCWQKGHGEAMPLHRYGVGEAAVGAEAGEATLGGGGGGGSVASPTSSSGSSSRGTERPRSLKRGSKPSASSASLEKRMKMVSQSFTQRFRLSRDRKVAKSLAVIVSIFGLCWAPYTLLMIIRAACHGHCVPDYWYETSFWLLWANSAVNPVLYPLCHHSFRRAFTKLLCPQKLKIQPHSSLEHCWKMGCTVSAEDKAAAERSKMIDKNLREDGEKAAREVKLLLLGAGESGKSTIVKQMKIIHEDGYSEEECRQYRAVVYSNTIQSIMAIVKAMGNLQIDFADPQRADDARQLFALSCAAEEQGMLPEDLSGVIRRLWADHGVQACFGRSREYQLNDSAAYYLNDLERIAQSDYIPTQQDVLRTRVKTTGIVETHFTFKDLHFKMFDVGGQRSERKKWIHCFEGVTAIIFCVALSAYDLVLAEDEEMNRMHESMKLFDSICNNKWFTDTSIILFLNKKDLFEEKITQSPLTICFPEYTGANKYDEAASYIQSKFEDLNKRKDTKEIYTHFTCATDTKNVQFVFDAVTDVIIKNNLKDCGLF

SMILES | inhibition at 4 µM [2] [%] | inhibition at 4 µM [3] [%] | further results
Cn1nc(C(C)(C)C)cc1C(=O)N1CCN(CC(=O)N2CCN(C3CCC3)CC2)CC1 [Compound 401, 1-[(3-tert-butyl-1-methyl-1H-pyrazol-5-yl)carbonyl]-4-[2-(4-cyclobutylpiperazin-1-yl)-2-oxoethyl]piperazine] |  |  | inhibition at 4 µM [1]: > 90%
COc1ccccc1OCC(=O)N1CCN(CC(=O)N2CCN(C3CCC3)CC2)CC1 [Compound 535, 1-cyclobutyl-4-({4-[(2-methoxyphenoxy)acetyl]piperazin-1-yl}acetyl)piperazine] | > 90 |  | 
O=C(CN1CCN(C(=O)c2c(Cl)cccc2Cl)CC1)N1CCN(C2CCC2)CC1 [Compound 691] |  | > 90 | 
Cc1cccc(OCC(=O)N2CCN(CC(=O)N3CCN(C4CCC4)CC3)CC2)c1 [Compound 554, 1-cyclobutyl-4-({4-[(3-methylphenoxy)acetyl]piperazin-1-yl}acetyl)piperazine] | > 90 |  | 
CCCCn1c(C(=O)N2CCN(CC(=O)N3CCN(C4CCC4)CC3)CC2)cc2ccccc21 [Compound 495, 1-butyl-2-({4-[2-(4-cyclobutylpiperazin-1-yl)-2-oxoethyl]piperazin-1-yl}carbonyl)-1H-indole] | > 90 |  | 
O=C(COc1cccc2ccccc12)N1CCN(CC(=O)N2CCN(C3CCC3)CC2)CC1 [Compound 500, 1-cyclobutyl-4-({4-[(1-naphthyloxy)acetyl]piperazin-1-yl}acetyl)piperazine] | > 90 |  | 
COc1ccc(/C=C/C(=O)N2CCN(CC(=O)N3CCN(C4CCC4)CC3)CC2)c(OC)c1 [Compound 520, 1-cyclobutyl-4-({4-[(2E)-3-(2,4-dimethoxyphenyl)prop-2-enoyl]piperazin-1-yl}acetyl)piperazine] | > 90 |  | 
Cc1cccc(C(=O)N2CCN(CC(=O)N3CCN(C4CCC4)CC3)CC2)c1 [Compound 761, 1-cyclobutyl-4-{[4-(3-methylbenzoyl)piperazin-1-yl]acetyl}piperazine] |  | > 90 | 
Cc1cnc(C(=O)N2CCN(CC(=O)N3CCN(C4CCC4)CC3)CC2)cn1 [Compound 894, 2-({4-[2-(4-cyclobutylpiperazin-1-yl)-2-oxoethyl]piperazin-1-yl}carbonyl)-5-methylpyrazine] |  |  | inhibition at 4 µM [4]: > 90%
O=C(CN1CCN(C(=O)c2ccc(F)c(Br)c2)CC1)N1CCN(C2CCC2)CC1 [Compound 291, 1-(3-bromo-4-fluorobenzoyl)-4-[2-(4-cyclobutylpiperazin-1-yl)-2-oxoethyl]piperazine] |  |  | inhibition at 4 µM [1]: > 90%
Cn1nc(C(F)(F)F)cc1-c1ccc(C(=O)N2CCN(CC(=O)N3CCN(C4CCC4)CC3)CC2)s1 [Compound 661, 1-cyclobutyl-4-{[4-({5-[1-methyl-3-(trifluoromethyl)-1H-pyrazol-5-yl]-2-thienyl}carbonyl)piperazin-1-yl]acetyl}piperazine] |  | > 90 | 
O=C(CN1CCN(C(=O)c2ccc(Oc3cc(Cl)cc(Cl)c3)o2)CC1)N1CCN(C2CCC2)CC1 [Compound 608, 1-cyclobutyl-4-({4-[5-(3,5-dichlorophenoxy)-2-furoyl]piperazin-1-yl}acetyl)piperazine] |  | > 90 | 
Cc1cc(C(=O)N2CCN(CC(=O)N3CCN(C4CCC4)CC3)CC2)n(C(C)(C)C)n1 [Compound 377, 1-[(1-tert-butyl-3-methyl-1H-pyrazol-5-yl)carbonyl]-4-[2-(4-cyclobutylpiperazin-1-yl)-2-oxoethyl]piperazine] |  |  | inhibition at 4 µM [1]: > 90%
Cc1ccc(OCC(=O)N2CCN(CC(=O)N3CCN(C4CCC4)CC3)CC2)c(C)c1 [Compound 508, 1-cyclobutyl-4-({4-[(2,4-dimethylphenoxy)acetyl]piperazin-1-yl}acetyl)piperazine] | > 90 |  | 
Cc1ccsc1C(=O)N1CCN(CC(=O)N2CCN(C3CCC3)CC2)CC1 [Compound 553, 1-cyclobutyl-4-({4-[(3-methyl-2-thienyl)carbonyl]piperazin-1-yl}acetyl)piperazine] | > 90 |  | 
O=C(Cc1ccccc1F)N1CCN(CC(=O)N2CCN(C3CCC3)CC2)CC1 [Compound 534, 1-cyclobutyl-4-({4-[(2-fluorophenyl)acetyl]piperazin-1-yl}acetyl)piperazine] | > 90 |  | 

SMILES | inhibition at 4 µM [2] [%] | inhibition at 4 µM [3] [%] | further results
CCCc1c(C(=O)N2CCN(CC(=O)N3CCN(C4CCC4)CC3)CC2)cnn1-c1ccc(Cl)cc1 [Compound 472, 1-{[1-(4-chlorophenyl)-5-propyl-1H-pyrazol-4-yl]carbonyl}-4-[2-(4-cyclobutylpiperazin-1-yl)-2-oxoethyl]piperazine] | > 90 |  | 
O=C(Cc1c(F)cccc1F)N1CCN(CC(=O)N2CCN(C3CCC3)CC2)CC1 [Compound 512, 1-cyclobutyl-4-({4-[(2,6-difluorophenyl)acetyl]piperazin-1-yl}acetyl)piperazine] | > 90 |  | 
Cc1oc(-c2ccccc2)cc1C(=O)N1CCN(CC(=O)N2CCN(C3CCC3)CC2)CC1 [Compound 713, 1-cyclobutyl-4-{[4-(2-methyl-5-phenyl-3-furoyl)piperazin-1-yl]acetyl}piperazine] |  | > 90 | 
O=C(CN1CCN(C(=O)c2ccc(F)c(Cl)c2)CC1)N1CCN(C2CCC2)CC1 [Compound 296, 1-(3-chloro-4-fluorobenzoyl)-4-[2-(4-cyclobutylpiperazin-1-yl)-2-oxoethyl]piperazine] |  |  | inhibition at 4 µM [1]: > 90%
O=C(COc1ccc(Cl)c(Cl)c1)N1CCN(CC(=O)N2CCN(C3CCC3)CC2)CC1 [Compound 545, 1-cyclobutyl-4-({4-[(3,4-dichlorophenoxy)acetyl]piperazin-1-yl}acetyl)piperazine] | > 90 |  | 
O=C(CN1CCN(C(=O)c2cccs2)CC1)N1CCN(C2CCC2)CC1 [Compound 723, 1-cyclobutyl-4-{[4-(2-thienylcarbonyl)piperazin-1-yl]acetyl}piperazine] |  | > 90 | 
COc1c(Cl)cc(Cl)c(OC)c1C(=O)N1CCN(CC(=O)N2CCN(C3CCC3)CC2)CC1 [Compound 737, 1-cyclobutyl-4-{[4-(3,5-dichloro-2,6-dimethoxybenzoyl)piperazin-1-yl]acetyl}piperazine] |  | > 90 | 
O=C(CN1CCN(C(=O)c2cc(Cl)ccc2Cl)CC1)N1CCN(C2CCC2)CC1 [Compound 681, 1-cyclobutyl-4-{[4-(2,5-dichlorobenzoyl)piperazin-1-yl]acetyl}piperazine] |  | > 90 | 
Cc1ccc(C(=O)N2CCN(CC(=O)N3CCN(C4CCC4)CC3)CC2)cc1Cl [Compound 298, 1-(3-chloro-4-methylbenzoyl)-4-[2-(4-cyclobutylpiperazin-1-yl)-2-oxoethyl]piperazine] |  |  | inhibition at 4 µM [1]: > 90%
O=C(Cc1ccc2ccccc2c1)N1CCN(CC(=O)N2CCN(C3CCC3)CC2)CC1 [Compound 717, 1-cyclobutyl-4-{[4-(2-naphthylacetyl)piperazin-1-yl]acetyl}piperazine] |  | > 90 | 
COc1cc(C(=O)N2CCN(CC(=O)N3CCN(C4CCC4)CC3)CC2)cc(Cl)n1 [Compound 275, 1-(2-chloro-6-methoxyisonicotinoyl)-4-[2-(4-cyclobutylpiperazin-1-yl)-2-oxoethyl]piperazine] |  |  | inhibition at 4 µM [1]: > 90%
Cc1cc(C)c(C(=O)N2CCN(CC(=O)N3CCN(C4CCC4)CC3)CC2)c(C)c1 [Compound 796, 1-cyclobutyl-4-{[4-(mesitylcarbonyl)piperazin-1-yl]acetyl}piperazine] |  |  | inhibition at 4 µM [4]: > 90%
O=C(CN1CCN(C(=O)c2cnccc2C(F)(F)F)CC1)N1CCN(C2CCC2)CC1 [Compound 632, 1-cyclobutyl-4-[(4-{[4-(trifluoromethyl)pyridin-3-yl]carbonyl}piperazin-1-yl)acetyl]piperazine] |  | > 90 | 
CC(CC(=O)N1CCN(CC(=O)N2CCN(C3CCC3)CC2)CC1)Sc1ccc(Cl)cc1 (centres unmarked) [Compound 482, 1-{3-[(4-chlorophenyl)thio]butanoyl}-4-[2-(4-cyclobutylpiperazin-1-yl)-2-oxoethyl]piperazine] | > 90 |  | 
Cc1ccc(Oc2ccccc2C(=O)N2CCN(CC(=O)N3CCN(C4CCC4)CC3)CC2)cc1 [Compound 576] |  | > 90 | 
CCC(CC)(C(=O)N1CCN(CC(=O)N2CCN(C3CCC3)CC2)CC1)c1ccccc1 [Compound 702, 1-cyclobutyl-4-{[4-(2-ethyl-2-phenylbutanoyl)piperazin-1-yl]acetyl}piperazine] |  | > 90 | 
